Reference: PubChem BioAssay (NCI)
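Dose response: 5 concentrations. Exposure: 48 h. Format: 96-well plates. Endpoint: linear interpolation; highest concentration if not reached. GI50 = concentration required for 50% inhibition of growth. The concentration for full growth arrest is given as TGI.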

How the values were obtained:
Experiment in all cases: NCI anticancer screen, dose series, 48 h
[1] = system: UACC-257 melanoma
[2] = system: SR leukemia
[3] = system: UACC-62 melanoma
[4] = system: SK-MEL-5 melanoma
[5] = system: SK-OV-3 ovarian
[6] = system: ACHN renal
[7] = system: NCI-H226 lung
[8] = system: A498 renal
[9] = system: OVCAR-3 ovarian
[10] = system: RPMI-8226 leukemia

| Compound | GI50 [1] | TGI [1] | GI50 [2] | TGI [2] | GI50 [3] | TGI [3] | GI50 [4] | TGI [4] | GI50 [5] | TGI [5] | GI50 [6] | TGI [6] | GI50 [7] | TGI [7] | GI50 [8] | TGI [8] | GI50 [9] | TGI [9] | GI50 [10] | TGI [10] |
| --- | --- | --- | --- | --- | --- | --- | --- | --- | --- | --- | --- | --- | --- | --- | --- | --- | --- | --- | --- | --- |
| CCCCCCCCCCCCCCCCCC1=NCCN1CS(=O)(=O)O | 17.1 µM | 33.9 µM | 7.85 µM | > 100 µM | 16.9 µM | 35.1 µM | 18.8 µM | 40.5 µM | 18.1 µM | 39.4 µM | 13 µM | 28.8 µM | 17.4 µM | 40.1 µM | 14.8 µM | 31 µM | 15 µM | 33.7 µM | 26.6 µM | 90.1 µM |
| NS(=O)(=O)c1cc2c(cc1Cl)NC(Cc1ccccc1)NS2(=O)=O (stereo not given) | – | > 100 µM | – | > 100 µM | – | > 100 µM | – | > 100 µM | – | > 100 µM | – | > 100 µM | – | > 100 µM | – | > 100 µM | – | > 100 µM | – | > 100 µM |
| CC(=O)N1CC(Nc2ccc(OC(F)(F)F)cc2)=CC1=O | > 100 µM | > 100 µM | 0.532 µM | 52.2 µM | 0.821 µM | > 100 µM | 0.377 µM | 12.1 µM | 3.53 µM | > 100 µM | 8.27 µM | > 100 µM | 3.98 µM | 55.9 µM | 1.25 µM | 24.2 µM | 1.19 µM | 4.03 µM | 2.67 µM | > 100 µM |
| COc1ccccc1-n1c(-c2cc(O)ccc2C)cn2c3c(=O)[nH]c(=O)n(C)c3nc12 | > 100 µM | > 100 µM | 66 µM | > 100 µM | > 100 µM | > 100 µM | 53.2 µM | > 100 µM | 2.78 µM | > 100 µM | 1.99 µM | 63.5 µM | 78.7 µM | > 100 µM | 25 µM | > 100 µM | 4.28 µM | > 100 µM | > 100 µM | > 100 µM |
| CCN(CC)c1cc(/C=C/c2ccc(OC)c(OC)c2)nc2cc(F)c(F)cc12 | 15.2 µM | > 100 µM | 3.15 µM | 12.3 µM | 7.04 µM | > 100 µM | 6.33 µM | > 100 µM | 1.98 µM | 4.54 µM | 2.56 µM | 9.76 µM | 2.7 µM | 9.07 µM | 1.95 µM | 6.2 µM | 5.54 µM | 33.3 µM | 22.1 µM | > 100 µM |
| CN1CCCNc2c(c(=O)c2=O)NCCCN(C)CCCNc2c(c(=O)c2=O)NCCCN(C)CCCNc2c(c(=O)c2=O)NCCCN(C)CCCNc2c(c(=O)c2=O)NCCCN(C)CCCNc2c(c(=O)c2=O)NCCCN(C)CCCNc2c(c(=O)c2=O)NCCCN(C)CCCNc2c(c(=O)c2=O)NCCC1 | 3.61 µM | 27 µM | 12.1 µM | > 50 µM | 2.39 µM | 16.8 µM | 6.69 µM | 21.9 µM | 2.46 µM | 8.29 µM | 1.66 µM | 6.87 µM | 8.43 µM | 21.8 µM | 2.72 µM | 11.1 µM | 4.39 µM | 15.1 µM | 3.51 µM | 31.2 µM |
| CCOc1ccc([C@@H]2[C@@H](Oc3ccccc3)C(=O)N2c2cc(OC)c(OC)c(OC)c2)cc1 | 86.4 µM | > 100 µM | 0.0483 µM | > 100 µM | 0.0427 µM | > 100 µM | 0.0395 µM | 1.16 µM | 0.227 µM | > 100 µM | 0.07 µM | > 100 µM | 1.13 µM | > 100 µM | 0.0205 µM | 0.0853 µM | 0.0355 µM | > 100 µM | 0.0486 µM | > 100 µM |
| Cc1cc2c(=O)n(-c3ccc(F)cc3)c(C)nc2c(C(=O)O)c1C | – | > 100 µM | – | > 100 µM | – | > 100 µM | – | > 100 µM | – | > 100 µM | – | > 100 µM | – | > 100 µM | – | > 100 µM | – | > 100 µM | – | > 100 µM |
| COc1ccc(NC(=O)n2nc(N)c3ccccc32)cc1OC | 73.6 µM | > 100 µM | 29.3 µM | > 100 µM | 52.3 µM | > 100 µM | 27.9 µM | > 100 µM | > 100 µM | > 100 µM | 58.3 µM | > 100 µM | 83.1 µM | > 100 µM | 30.3 µM | 85.4 µM | 92 µM | > 100 µM | 21.1 µM | 80.8 µM |
